Patent publication US20170105920A1, “COSMETIC METHOD USING METAL PHTHALOCYANINE DERIVATIVE” (I'FORET CO., LTD., priority 2010, published 2017)

Assay: Effectiveness test on suppression of fading, one week at 50° C., visual evaluation
Format: physicochemical
Experimental: Each beauty essence was kept for one week at 50° C. and its stability was visually evaluated compared to the beauty essence immediately after preparation.
Expert testers judged the beauty essences tested on a scale of three as specified below: […]

Row | fading (in words) (component blended by 0.05%) | SMILES | fading (in words) (component blended by 0.1%) | Judgment of appearance (anti-fading) (anti-fading component 0.10% in recipe of Example 4 (0.01% iron phthalocyanine tetracarboxylic acid)) | fading (in words) (component blended by 0.2%)
1 | hardly any fading | O=P(O)(O)O[C@H]1[C@H](OP(=O)(O)O)[C@@H](OP(=O)(O)O)[C@H](OP(=O)(O)O)[C@@H](OP(=O)(O)O)[C@H]1OP(=O)(O)O [Phytic acid, phytic acid] | hardly any fading | – | –
2 | – | O=C([O-])CN(CCN(CC(=O)O)CC(=O)O)CC(=O)[O-].[Na+].[Na+] [EDTA-2Na, sodium EDTA-2] | Marked fading | Δ~X | some fading
